Test results published in patent EP2933270B1, “ARTEANNUIN CYCLODEXTRIN CONJUGATE AND PREPARING METHOD THEREOF” (KPC Pharmaceuticals, Inc., priority 2012, dated 2014).
Where two headings read alike, the source gives them in different places. Blank lines part the entries; values can stand above or below the molecule they belong to.

Legend:
[1] = Solubility in water
Text: The arteannuin-cyclodextrin conjugate according to the present invention uses a cyclodextrin as a carrier, and a molecule of an arteannuin compound is connected, via an amide bond formed between the carboxyl group thereof and any amine group of the cyclodextrin modified by an amine group, to the cyclodextrin.

[2] = tested on: HCT116; test: MTT assay, growth inhibition of human rectal cancer cells; format: cell-based
Experimental: (§1) For example, 180 µl suspension of human rectal cancer cells HCT116, Lovo, SW480 and HT29 at a concentration of 4×10^4/mL is added to 96-well culture plate, and pre-cultured under the conditions of 5% CO2, 37°C and saturated moisture for 24h. After 150 µl medium is replaced, 20 µl medium containing molecular assembly at different concentrations is added, and cultured for another 48 h, with the medium free of a sample as a negative control, and a medium containing camptothecin, oxaliplatin and fluorouracil at different concentrations as a positive control. MTT assay is used to determine the OD value, and to calculate the growth inhibition rate. The inhibition of compounds at high, medium and low concentrations on the tumor cell proliferation is observed. All the experiments above are performed in triplet. Results for in vitro experiment of the arteannuin-cyclodextrin conjugate with respect to human rectum and caecum cancer cells are shown in table 1. Table 1 IC50 value (µM) for certain arteannuin compounds in several rectum cancer cells

[3] = tested on: HT29; test: as above; format: cell-based; conditions: 48 h
Experimental: as §1

[4] = tested on: Lovo; test: as above; format: cell-based; conditions: 48 h
Experimental: as §1

[5] = tested on: SW480; test: as above; format: cell-based; conditions: 48 h
Experimental: as §1

[6] = tested on: Hep2 hepatoma; conditions: mice, intraperitoneal injection, 60 mg/kg; cited from earlier work
[7] = tested on: hepatocarcinoma H22; conditions: mice, 300 mg/kg by gavage; cited from earlier work
[8] = Homo sapiens, HT-29, HT 90 [sic] cells (method: HT29)
[9] = HT 90 [sic] cells (method: HT29)
[10] = isolated product of the example

Molecule: O=c1[nH]cc(F)c(=O)[nH]1 [fluorouracil]
IC50 ([2]; Homo sapiens, HCT-116, 48 h): 5.4 µM
IC50 [3, 8]: 38.5 µM
IC50 ([4]; Homo sapiens): 23 µM
IC50 ([5]; Homo sapiens): 30.8 µM

Molecule: O=C1[O][Pt]2([NH][C@@H]3CCCC[C@H]3[NH]2)[O]C1=O [oxaliplatin]
IC50 ([2]; 48 h): 0.76 µM
IC50 [3, 9]: 9.7 µM
IC50 [4]: 1.51 µM
IC50 [5]: 30.1 µM

Molecule: conjugate of mono-[6-(ethanediamine)-6-deoxy]-β-cyclodextrin and the compound in which C-12 of the arteannuin was connected with a phenoxy group [Example 5]
solubility [1]: 68 mg/mL

Molecule: conjugate of mono-[6-(monoamine)-6-deoxy]-β-cyclodextrin and the compound in which C-12 of the arteannuin was connected with a phenoxy group [Example 6]
solubility [1, 10]: 54 mg/mL

Molecule: mono-[6-(ethanediamine)-6-deoxy]-β-cyclodextrin-artesunate conjugate [Example 1]
IC50 ([2]; 48 h): 0.58 µM
IC50 [3, 9]: 5.18 µM
IC50 [4]: 1.62 µM
IC50 [5]: 3.89 µM
solubility [1, 10]: 68 mg/mL

The next lines start with results.

solubility in water ([1]; in water): almost insoluble in water
Molecule: C[C@@H]1CC[C@H]2[C@@H](C)C(=O)O[C@@H]3O[C@@]4(C)CC[C@@H]1[C@]32OO4 [arteannuin]

IC50 ([2]; Homo sapiens, HCT-116, 48 h): 1.04 µM
IC50 [3, 8]: 9.11 µM
IC50 ([4]; Homo sapiens): 2.6 µM
IC50 ([5]; Homo sapiens): 1.82 µM
solubility in water ([1]; in water): almost insoluble in water
Molecule: C[C@H]1[C@H](OC(=O)CCC(=O)O)O[C@@H]2O[C@@]3(C)CC[C@H]4[C@H](C)CC[C@@H]1[C@@]24OO3 [artesunate]
anti-tumor rate [6]: 80.4%
anti-tumor rate [7]: ≥ 40%

IC50 ([2]; Homo sapiens, HCT-116, 48 h): 1.76 µM
IC50 [3, 8]: 21.1 µM
IC50 ([4]; Homo sapiens): 2.11 µM
IC50 ([5]; Homo sapiens): 14.1 µM
solubility in water [1]: almost insoluble in water
Molecule: C[C@H]1[C@@H](O)O[C@@H]2O[C@@]3(C)CC[C@H]4[C@H](C)CC[C@@H]1[C@@]24OO3 [dihydroarteannuin]
